Experiments:
Rac1 = Rac1 activation pull-down (GST-Pak1-PBD) in SUM159 cells; type: cell-based, human; conditions: 2 hr, PDGF 100 ng/ml
Procedure: Rho/Rac family, especially Rac1, plays a critical role in actin polymerization, membrane ruffling/lamellipodia formation, and cell motility (Ridley A J et al. (1992) Cell 70:401-410) downstream of the GEFs, e.g., VAV family, and upstream of the WAVE family. The effect of PITs on Rac1 activation was therefore analyzed. SUM159 cells were seeded on 10 cm^2 plates and serum starved overnight, treated with different PIT compounds at a variety of concentrations for 2 hr, and then stimulated with 100 ng/ml PDGF for […]. Next, cells were rinsed once with PBS, and 1 ml lysis buffer (25 mM Tris-HCl, pH 7.5, 150 mM NaCl, 5 mM MgCl2, 1% NP-40, 1 mM DTT, 5% glycerol, 1 μg/ml aprotinin, 1 μg/ml leupeptin and 1 mM PMSF) was added per plate. The cells were scraped and transferred to a microcentrifuge tube, vortexed briefly, and incubated on ice for 5 min, followed by a centrifugation at 16,000×g at 4° C. for 15 min. The supernatant was collected. A sample of the lysate was used to ensure equal protein concentration in the samples. Next, 700 μl lysate, 20 μl glutathione-sepharose beads, and 20 μg GST-human Pak1-PBD were mixed together, and the reaction mixture was incubated at 4° C. for 1 hr with gentle rocking. The beads were then washed three times with lysis buffer, and proteins were eluted by boiling beads in 50 μl of the 2×SDS sample buffer at 95-100° C. for 5 min. […]

[1] = solubility / precipitation; type: physicochemical
Description: This method has been reported to be efficient for in vivo targeting of cancer cells by other poorly soluble anti-cancer drugs, such as m-porphyrin, tamoxifen, and taxol. Gao Z et al. (2003) J Drug Target 11:87-92; Torchilin V P et al. (2003) Proc Natl Acad Sci USA 100:6039-44.
The size of the DM-PIT-1-loaded micelles was about 15 nm with a narrow size distribution.

[2] = test system: multiple cancer cell lines; experiment: cancer cell viability (MTS or ATP assay), multiple cancer cell lines; type: cell-based; conditions: for viability of multiple cancer cell lines: B16, Jurkat, Lewis lung carcinoma, A549, 4T1, SUM-159, MDA-MB-231, MTS or ATP assay
Procedure: Different cancer cell lines U87MG, SUM 159, A549, and MDA-MB-231 were incubated with the indicated concentrations of PIT-1 (12.5-100 μM) for 48 hr. Cell viability was determined using ATP assay.
Based on the critical role of PIP3-dependent Akt signaling in the regulation of cell survival, the effect of PIT-1 on the cancer cell viability was tested. Cancer cells were seeded into 96-well plates (white plates for ATP assay; black plates for fluorescent assay; clear plates for MTS assay) at the density of 5-10×10^3 cells per well in 100 μl of the appropriate media. Compounds were added at a series of concentrations and incubated for different times. For the ATP assay, a luminescence-based commercial kit (CellTiter-Glo, Promega, Madison, Wis.) was used. Thirty microliters of cell lysis/ATP detection reagent was added to each well, mixed for 10 min at room temperature, and the luminescence was measured using a Wallac Victor 3 plate reader (Perkin-Elmer, Wellesley, Mass.). For the MTS assay, a CellTiter 96 AQueous Non-Radioactive Cell Proliferation Assay Kit (Promega, Madison, Wis., USA) was used. Twenty microliters of the combined MTS/PMS solution was added into each well, incubated for 4 hr at 37° C., and the absorbance at 490 nm was measured using a Wallac Victor 3 plate reader. For the Sytox cell death assay, measuring loss of plasma membrane integrity, cells were incubated with 1 μM Sytox Green reagent (Molecular Probes, Eugene, Oreg.) for 30 min at 37° C. and the fluorescence intensity was measured using Wallac Victor 3 plate reader with excitation at 485 nm and emission at 545 nm. Next, 5 μl of 20% (v/v) Triton X-100 solution was added to each well and incubated for 1 hr at 37° C., and the signal was measured again. The ratio of values (percentage of dead cells in each well) before and after Triton X-100 treatment was calculated and normalized to the relevant controls not subjected to the cytotoxic stimuli. IC50 values were determined using Origin6 software (MicroCal, LLC, Northampton, Mass.).

VAV2 = molecular target: T1, VAV2 (Homo sapiens, UniProt P52735); experiment: plasma membrane translocation assay, VAV2-GFP; type: cell-based; conditions: PDGF stimulation
T1 construct: expressed in transfected cells; host or cells: SUM159
T1 sequence (P52735 whole entry, species assumed): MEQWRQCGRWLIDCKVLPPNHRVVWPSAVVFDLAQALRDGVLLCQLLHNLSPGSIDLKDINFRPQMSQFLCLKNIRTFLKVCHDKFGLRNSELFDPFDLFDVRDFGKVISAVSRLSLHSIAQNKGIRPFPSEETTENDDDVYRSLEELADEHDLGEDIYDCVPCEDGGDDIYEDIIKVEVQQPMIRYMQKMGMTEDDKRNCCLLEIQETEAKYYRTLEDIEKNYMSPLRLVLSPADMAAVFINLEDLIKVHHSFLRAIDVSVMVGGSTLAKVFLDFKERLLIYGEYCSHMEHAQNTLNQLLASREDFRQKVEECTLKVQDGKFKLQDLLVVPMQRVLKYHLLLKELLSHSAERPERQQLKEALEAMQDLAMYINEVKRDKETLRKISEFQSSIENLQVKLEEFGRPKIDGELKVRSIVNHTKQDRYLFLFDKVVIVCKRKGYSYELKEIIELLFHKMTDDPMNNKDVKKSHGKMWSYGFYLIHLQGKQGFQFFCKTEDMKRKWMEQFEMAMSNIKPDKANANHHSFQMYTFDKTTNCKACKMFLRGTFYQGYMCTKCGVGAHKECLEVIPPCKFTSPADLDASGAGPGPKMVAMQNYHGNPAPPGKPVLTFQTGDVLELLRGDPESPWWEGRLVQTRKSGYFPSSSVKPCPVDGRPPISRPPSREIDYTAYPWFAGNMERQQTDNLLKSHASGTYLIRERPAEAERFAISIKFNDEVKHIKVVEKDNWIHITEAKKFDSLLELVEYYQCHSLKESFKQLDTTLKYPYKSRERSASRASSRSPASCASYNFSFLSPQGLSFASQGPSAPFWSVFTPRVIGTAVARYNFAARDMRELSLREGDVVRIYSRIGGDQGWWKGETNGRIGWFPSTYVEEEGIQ
Procedure: To begin characterizing cellular activity of PITs, a PH domain translocation assay was performed, measuring PIP3-induced association of GFP-fused PH domains with the plasma membrane. This method provides useful means for monitoring status of the PH domain/PIP3 binding in the intact cells. Varnai P et al. (1999) J Biol Chem 274:10983-9. Several PH-domain-containing proteins, which are known to bind PIP3 specifically and efficiently, were examined. […] Oikawa T et al. (2004) Nat Cell Biol 6:420-6.

[3] = test system: Bax/Bak double knockout mouse embryonic fibroblasts; experiment: cell killing in Bax/Bak double knockout vs wild-type cells; type: cell-based
Procedure: Bax/Bak double knockout mouse embryonic fibroblasts (Wei M C et al. (2001) Science 292:727-30) and matched wild-type cells were a generous gift of Dr. Stanley Korsmeyer (Dana-Farber Cancer Center). B16-F10, U87MG, 4T1, A549, MDA-MB-231 and fibroblast cells were cultured in DMEM medium with 10% fetal bovine serum (FBS). SUM159 was maintained in Ham's F-12 medium with 5% FBS, 5 μg/ml insulin, and 1 μg/ml hydrocortisone. HUVEC cells were cultured in M199 medium with 20% FBS, 20 μg/ml ECGS, and 50 μg/ml heparin. All media were supplemented with 100 units/ml penicillin, 100 μg/ml streptomycin, and 2 mM glutamine. All cells were cultured in a humidified atmosphere of 95% air and 5% CO2 at 37° C.

cells = experiment: cell death under glucose/glutamine deprivation; type: cell-based
Description: Elstrom R L et al. (2004) Cancer Res 64:3892-9.

[4] = test system: SV40-transformed mouse adult lung fibroblasts; experiment: loss of viability, Akt1-expressing vs Akt1-3 triple knockout lung fibroblasts; type: cell-based; conditions: P<0.01
Description: Shaughnessy J D (2008) Nature 454:172-3; Weinstein I G (2002) Science 297:63-4. Therefore, the possibility that PIT-1 may cause preferential cell death in the cells containing elevated PIP3 levels was examined. […] Li D M et al. (1998) Proc Natl Acad Sci USA 95:15406-11. […] This observation is consistent with the notion that PTEN-deficient cancer cells become overly dependent on PIP3 signaling and, therefore, are hypersensitive to disruption of this pathway compared to wild-type PTEN-expressing cells. Neshat M S et al. (2001) Proc Natl Acad Sci USA 98:10314-9.

[5] = molecular target: T2, Akt PH domain (PH123, 1-123 a.a. N-terminal fragment of human Akt1) (Homo sapiens, UniProt P31749); experiment: fluorescence polarization (FP) PIP3/Akt PH domain binding assay; conditions: 15 nM TMR-PIP3, 5 μM GST-PH domain of Akt, 30 min, read-out: IC50, disruption of PIP3/Akt PH domain binding
T2 construct: recombinant GST fusion proteins containing 1-123 a.a; N-terminal fragment of human Akt1 (PH 123); made in house; host or cells: E. coli BL21(DE3)
T2 sequence (P31749 1-123): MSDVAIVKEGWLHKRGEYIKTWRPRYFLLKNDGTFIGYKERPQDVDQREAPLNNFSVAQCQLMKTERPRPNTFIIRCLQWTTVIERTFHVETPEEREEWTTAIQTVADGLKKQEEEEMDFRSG
Procedure: 15 nM TMR-conjugated PIP3 were incubated with 5 μM GST-PH domain of Akt in the presence or absence of the indicated concentrations of PITs (0-200 μM) for 30 min, followed by FP measurement.
In order to identify compounds that disrupt the interaction between PIP3 and PH domains, a high-throughput fluorescence polarization (FP)-binding assay was developed using recombinant 1-123 amino acid N-terminal fragment of human Akt1 (also referred to herein simply as Akt), encompassing the PH domain (PH123 protein), and fluorescent NBD-labeled PIP3 molecule. […] Briefly, 5 μM recombinant GST fusion proteins containing 1-123 a.a. N-terminal fragment of human Akt1 (PH 123) or 100 nM 441-551 a.a. region of human PDK1 were incubated with 15 nM TMR-labeled PIP3, PIP2, or PIP5 in buffer containing 50 mM Tris-HCl (pH 7.5), 150 mM NaCl, and 5 mM b-ME for 15 min at room temperature in the dark. FP values were determined using Wallac Victor 3 plate reader. […] Incubations were carried out for 1 hr. For secondary assays, PIT compounds were added at various concentrations (6.25, 12.5, 25, 50, 100, 150 and 200 μM), followed by a 30 min incubation. The inhibition rates were calculated as: inhibition rate=[1−(compound-treated group/control group)]×100%, and IC50 value was determined using Origin6 software (MicroCal, LLC, Northampton, Mass.).

SMILES	activation of Rac1 caused by growth factor stimulation (Rac1)	aqueous solubility [1]	viability of multiple cancer cell lines [2]	inhibition of translocation of VAV2 to the plasma membrane (VAV2)	killing of Bax/Bak double knockout cells compared with wild-type cells [3]	cell death in combination with glucose/glutamine deprivation (cells)	loss of viability in Akt1-expressing fibroblasts compared to Akt1-3 triple knockout cells [4]	IC50 [5]	viability of U87MG, SUM 159, A549 and MDA-MB-231 cells ([2]; 12.5-100 μM, 48 hr, ATP assay)
O=C1NC(=S)S/C1=C\c1cc(O)c([N+](=O)[O-])cc1Cc1ccccc1 [PIT-2]	efficiently suppressed	limited aqueous solubility	reduced viability	significantly inhibited	reduced in Bax/Bak double knockout cells	dramatic induction of cell death	more pronounced	31.5 µM	
O=C(NC(=S)Nc1cc([N+](=O)[O-])cc(Cl)c1O)c1ccccc1 [PIT-1]	efficiently suppressed	limited aqueous solubility	reduced viability	significantly inhibited	reduced in Bax/Bak double knockout cells	dramatic induction of cell death	more pronounced	28.1 µM	reduces viability

Reference: US20120136033A1, “Small Molecule Antagonists of Phosphatidylinositol-3,4,5-Triphosphate (PIP3) and Uses Thereof” (President and Fellows of Harvard College, priority 2009, published 2012)
